Data: publication PMC10111022, “Comparison of pharmacological inhibitors of lysine-specific demethylase 1 in glioblastoma stem cells reveals inhibitor-specific efficacy profiles” (Frontiers in Neurology, 2023)

Tests used:
MDA-GSC 262 = experiment: Cell viability dose response (IC50), MDA-GSC 262; format: cell-based; conditions: Homo sapiens, mean of three independent experiments
Description: (§1) MDA-GSCs were plated at 50,000 cells/well into 12-well plates at and allowed to grow for 5 days until neurospheres were formed. The cells were then treated with either TCP, GSK-LSD1, or RN-1 at various concentrations for 5 days. Next, the cells were collected and neurospheres were dissociated with Accutase (BioLegend; San Diego, CA). Cell viability was determined using a trypan dye exclusion assay and read with the Vi-Cell XR Cell Viability Analyzer (Beckman Coulter; Brea, CA). NHAs were plated at 50,000 cells/well into 12-well plates and allowed to adhere overnight. The following day, NHAs were treated with the LSD1 inhibitors. After 5 days, the cells were detached using TrypLE and assessed with the trypan blue dye exclusion assay.
(§2) The alamarBlue cell viability (Bio-Rad; Hercules, CA) was performed on the MDA-GSCs according to the manufacturer’s protocol. The cells were plated at 5,000 cell/well into a 96-well plate and allowed to grow for 5 days. After 5 days, the alamarBlue reagent was added and fluorescence was measured with the Synergy 2 (BioTek Instruments; Winooski, VT) plate reader according to the manufacturer’s protocol.

MDA-GSC 311 = experiment: Cell viability dose response (IC50), MDA-GSC 311; format: cell-based; conditions: Homo sapiens, mean of three independent experiments
Description: as §1, §2

MDA-GSC 20 = experiment: Cell viability dose response (IC50), MDA-GSC 20; format: cell-based; conditions: Homo sapiens, mean of three independent experiments
Description: as §1, §2

MDA-GSC 17 = experiment: Cell viability dose response (IC50), MDA-GSC 17; format: cell-based; conditions: Homo sapiens, mean of three independent experiments
Description: as §1, §2

MDA-GSC 6–27 = experiment: Cell viability dose response (IC50), MDA-GSC 6–27; format: cell-based; conditions: Homo sapiens, mean of three independent experiments
Description: as §1, §2

MDA-GSC 7–11 = experiment: Cell viability dose response (IC50), MDA-GSC 7–11; format: cell-based; conditions: Homo sapiens, mean of three independent experiments
Description: as §1, §2

MDA-GSC 23 = experiment: Cell viability dose response (IC50), MDA-GSC 23; format: cell-based; conditions: Homo sapiens, mean of three independent experiments
Description: as §1, §2

MDA-GSC 8–11 = experiment: Cell viability dose response (IC50), MDA-GSC 8–11; format: cell-based; conditions: Homo sapiens, mean of three independent experiments
Description: as §1, §2

MDA-GSC 7–2 = experiment: Cell viability dose response (IC50), MDA-GSC 7–2; format: cell-based; conditions: Homo sapiens, mean of three independent experiments
Description: as §1, §2

NHA = experiment: Cell viability dose response (IC50), normal human astrocytes; format: cell-based; conditions: for IC50: Homo sapiens, Astrocyte, mean of three independent experiments; for effect on NHA viability: NHA treated at the maximum concentration tested for each compound
Description: as §1, §2

MDA-GSC lines = experiment: Cell viability across the panel of nine MDA-GSC lines; format: cell-based, Human; conditions: for concentrations at which MDA-GSC viability was reduced: many/several MDA-GSC lines, dose response curves Figure 2
Description: as §1, §2

[1] = set-up: method as in personal communications, Salarius Pharmaceuticals; conditions: ref personal communications, Salarius Pharmaceuticals; cited from earlier work
MDA-GSC20 = experiment: qPCR of resistance-related genes, MDA-GSC20; format: cell-based, Human; conditions: MDA-GSC20 (resistant)
Description: (§3) Total RNA was extracted using RNeasy Plus Mini Kit (Qiagen; Hilden, Germany) following the manufacturer’s protocol. cDNA was synthesized with the iScript cDNA synthesis kit (Bio-Rad; Hercules, CA), qPCR was performed using Forget-Me-Not EvaGreen qPCR kit (Biotium; Fremont, CA), and samples were analyzed with the LightCycler96 (Roche; Basel, Switzerland). Cq values were normalized to PPIA and reported as relative fold change from untreated control.

MDA-GSC7-2 = experiment: qPCR of resistance-related genes, MDA-GSC7-2; format: cell-based, Human; conditions: MDA-GSC7-2 (sensitive)
Description: as §3

MDA-GSC8-11 = experiment: qPCR of resistance-related genes, MDA-GSC8-11; format: cell-based, Human; conditions: MDA-GSC8-11 (resistant)
Description: as §3

MDA-GSC17 = experiment: qPCR of resistance-related genes, MDA-GSC17; format: cell-based, Human; conditions: MDA-GSC17 (sensitive)
Description: as §3

[2] = set-up: method as in PMID 34786883, PMID 33052756; conditions: safety studies; cited from earlier work

Row | SMILES | IC50 (MDA-GSC 262) | IC50 (MDA-GSC 311) | IC50 (MDA-GSC 20) | IC50 (MDA-GSC 17) | IC50 (MDA-GSC 6–27) | IC50 (MDA-GSC 7–11) | IC50 (MDA-GSC 23) | IC50 (MDA-GSC 8–11) | IC50 (MDA-GSC 7–2) | IC50 (NHA; NHA) | concentrations at which MDA-GSC viability was reduced (MDA-GSC lines) | effect on NHA viability (NHA) | neurotoxic effects in human trials [2] | also measured
1 | C/C(=N\NC(=O)c1cccc(S(=O)(=O)N2CCN(C)CC2)c1)c1cc(Cl)ccc1O [SP-2577] | 8.8 µM | 23.6 µM | > 25 µM | 15.7 µM | 6.8 µM | 5.6 µM | 16.8 µM | 12.4 µM | 9.7 µM | 2.3 µM | less than 10 μM |  |  | activity in noncancerous cells, NHA (NHA; NHA, Figure 2J): strong activity; crossing of the blood brain barrier [1]: has not been found to cross the blood brain barrier
2 | NC1CC1c1ccccc1 (stereo not shown) [TCP, tranylcypromine] | 4100 µM | 3500 µM | 4700 µM | 2200 µM | > 5000 µM | > 5000 µM | 2700 µM | > 5000 µM | 2700 µM | > 5000 µM |  | minimal effect |  | effects on cell viability (MDA-GSC lines; MDA-GSC lines, Figure 2C): not seen until mM concentrations; expression of resistance-related genes (FTH1, RAB39B, HKDC1, FAM213A) (MDA-GSC20): consistently increased; expression of resistance-related genes (FTH1, RAB39B, HKDC1, FAM213A) (MDA-GSC7-2): only minimal effects; expression of resistance-related genes (MDA-GSC8-11): increase in two of the resistance related genes; expression of resistance-related genes (MDA-GSC17): did not significantly increase
3 | N[C@H]1CC[C@H](N[C@@H]2C[C@H]2c2ccccc2)CC1 [ORY-1001] | 92.7 µM | > 150 µM | 54.8 µM | 107 µM | 72.8 µM | 64.7 µM | 97.8 µM | 64.5 µM | 87.7 µM | 96.3 µM | 50 to 90 µM |  | have not revealed any neurotoxic effects | 
4 | CN1CCN(C(=O)[C@H](CCCN[C@@H]2C[C@H]2c2ccc(F)cc2)NC(=O)c2ccc(-n3ccnn3)cc2)CC1 [IMG-7289] | 41.2 µM | > 125 µM | 66.9 µM | 87.4 µM | 39.9 µM | 23.6 µM | 34.2 µM | 56.1 µM | 32.1 µM | 38.2 µM | < 50 µM |  | have not revealed any neurotoxic effects | 
5 | CN1CCN(C(=O)CN[C@H]2C[C@@H]2c2ccc(OCc3ccccc3)cc2)CC1 [RN-1] | > 50 µM | > 50 µM | 39.8 µM | 22.5 µM | 23.8 µM | > 50 µM | > 50 µM | > 50 µM | > 50 µM | > 50 µM | 20 to 50 µM | minimal effect |  | 
6 | Nc1nnc(CN[C@@H]2C[C@H]2c2ccc(OCc3ccccc3)cc2)o1 [ORY-2001] | > 50 µM | 45.6 µM | > 50 µM | > 50 µM | > 50 µM | 42.1 µM | 48.1 µM | > 50 µM | > 50 µM | > 50 µM |  |  |  | IC50 (MDA-GSC lines; Homo sapiens, majority of MDA-GSCs, maximum dose 50 μM): > 50 µM
